Measured values taken from ChEMBL document CHEMBL1146654, “3-(7-Azaindolyl)-4-arylmaleimides as potent, selective inhibitors of glycogen synthase kinase-3” (Bioorg Med Chem Lett, 2004).

Legend:
Set-up in all cases: scale not given: the % may be the effect or the level left
[1] = target: Ca2+/calmodulin-dependent protein kinase II (CaM kinase II) (Rattus norvegicus) (UniProt P11275+P08413+P15791+P11730); test: Inhibition of Calcium/calmodulin-dependent protein kinase type II; assay type: protein assay
[2] = target: Casein kinase II (Homo sapiens) (UniProt P67870+P68400+P19784); test: Inhibition of Casein kinase 2; assay type: protein-complex assay
[3] = target: Cyclin-dependent kinase 2/cyclin E (Homo sapiens) (UniProt P24864+P24941+O96020); test: Inhibition of CDK2/cyclin E; assay type: protein-complex assay
[4] = target: Cyclin-dependent kinase 2/cyclin A (Homo sapiens) (UniProt P24941+P20248+P78396); test: Inhibition of Cyclin-dependent kinase 2-cyclin A; assay type: protein-complex assay
[5] = target: Cyclin-dependent kinase 5/CDK5 activator 1 (Homo sapiens) (UniProt Q00535+Q15078); test: Inhibition of Cyclin-dependent kinase 5-p35nck5a; assay type: protein-complex assay
[6] = target: Cyclin-dependent kinase 7/ cyclin H (Homo sapiens) (UniProt P51946+P50613); test: Inhibition of Cyclin-dependent kinase 7-cyclin H; assay type: protein-complex assay
[7] = target: Cyclin-dependent kinase 1/cyclin B (Homo sapiens) (UniProt P06493+P14635+Q8WWL7+O95067); test: Inhibition of cyclin-dependent kinase 1-cyclin B; assay type: protein-complex assay
[8] = target: Tyrosine-protein kinase Fes/Fps (Homo sapiens) (UniProt P07332); test: Inhibition of Fes kinase
[9] = target: T1, Dual specificity mitogen-activated protein kinase kinase 4 (Mus musculus) (UniProt P47809); test: Inhibition of Mitogen activated protein kinase kinase 4
T1 sequence (whole entry): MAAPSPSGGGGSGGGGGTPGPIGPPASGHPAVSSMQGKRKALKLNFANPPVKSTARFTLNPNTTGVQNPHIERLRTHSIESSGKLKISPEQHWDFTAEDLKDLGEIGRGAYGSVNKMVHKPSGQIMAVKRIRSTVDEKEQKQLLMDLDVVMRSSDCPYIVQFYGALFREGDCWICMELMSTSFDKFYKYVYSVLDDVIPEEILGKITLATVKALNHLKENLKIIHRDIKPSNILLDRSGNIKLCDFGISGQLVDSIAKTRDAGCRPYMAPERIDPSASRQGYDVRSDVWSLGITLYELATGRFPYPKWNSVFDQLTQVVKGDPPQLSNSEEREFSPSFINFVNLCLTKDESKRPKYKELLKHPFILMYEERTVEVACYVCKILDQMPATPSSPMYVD

[10] = organism: Bos taurus; test: Inhibition of bovine PKA
[11] = target: Protein kinase C beta type (Homo sapiens, UniProt P05771); test: Inhibition of PKCbetaII
[12] = target: RAC-alpha serine/threonine-protein kinase (Homo sapiens) (UniProt P31749); test: Inhibition of PKBalpha
[13] = target: RAC-beta serine/threonine-protein kinase (Homo sapiens) (UniProt P31751); test: Inhibition of PKBbeta
[14] = target: T2, Protein kinase C epsilon type (Homo sapiens) (UniProt Q02156); test: Inhibition of PKCepsilon
T2 sequence (whole entry): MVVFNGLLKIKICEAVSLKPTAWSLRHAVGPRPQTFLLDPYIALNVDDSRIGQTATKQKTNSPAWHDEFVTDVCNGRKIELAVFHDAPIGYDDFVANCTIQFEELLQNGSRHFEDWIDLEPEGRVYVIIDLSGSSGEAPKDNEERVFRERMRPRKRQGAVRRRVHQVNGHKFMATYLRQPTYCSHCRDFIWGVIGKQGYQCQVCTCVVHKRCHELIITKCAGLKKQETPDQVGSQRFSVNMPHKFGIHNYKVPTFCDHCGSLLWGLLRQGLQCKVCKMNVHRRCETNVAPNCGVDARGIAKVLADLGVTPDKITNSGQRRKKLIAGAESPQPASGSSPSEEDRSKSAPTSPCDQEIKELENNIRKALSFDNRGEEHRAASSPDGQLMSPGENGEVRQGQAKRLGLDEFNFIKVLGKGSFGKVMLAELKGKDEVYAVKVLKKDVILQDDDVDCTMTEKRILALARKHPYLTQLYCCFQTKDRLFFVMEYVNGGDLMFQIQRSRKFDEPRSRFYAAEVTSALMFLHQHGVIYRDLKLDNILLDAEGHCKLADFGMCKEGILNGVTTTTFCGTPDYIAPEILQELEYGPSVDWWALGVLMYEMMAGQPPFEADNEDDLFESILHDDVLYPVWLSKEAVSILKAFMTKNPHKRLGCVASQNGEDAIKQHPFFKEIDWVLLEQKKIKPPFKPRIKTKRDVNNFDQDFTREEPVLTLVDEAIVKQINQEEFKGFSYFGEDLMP

[15] = target: T3, Serine/threonine-protein kinase Chk1 (Homo sapiens) (UniProt O14757); test: Inhibition of Serine/threonine-protein kinase Chk1
T3 sequence (whole entry): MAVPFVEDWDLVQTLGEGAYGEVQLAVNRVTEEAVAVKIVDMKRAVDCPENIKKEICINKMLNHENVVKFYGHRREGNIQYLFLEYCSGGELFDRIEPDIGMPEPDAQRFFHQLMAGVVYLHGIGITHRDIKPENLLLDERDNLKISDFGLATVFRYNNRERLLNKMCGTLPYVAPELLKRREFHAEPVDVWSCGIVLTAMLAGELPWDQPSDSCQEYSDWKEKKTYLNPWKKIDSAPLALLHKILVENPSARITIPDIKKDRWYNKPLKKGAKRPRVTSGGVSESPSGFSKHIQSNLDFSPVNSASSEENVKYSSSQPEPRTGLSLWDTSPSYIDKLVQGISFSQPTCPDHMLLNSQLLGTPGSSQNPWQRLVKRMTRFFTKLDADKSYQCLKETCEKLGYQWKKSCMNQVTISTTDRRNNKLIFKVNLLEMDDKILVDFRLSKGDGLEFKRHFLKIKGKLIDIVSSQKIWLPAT

[16] = target: Mitogen-activated protein kinase 11 (Homo sapiens) (UniProt Q15759); test: Inhibition of Stress activated protein kinase 2b
[17] = target: T4, Mitogen-activated protein kinase 13 (Homo sapiens) (UniProt O15264); test: Inhibition of Stress activated protein kinase 4
T4 sequence (whole entry): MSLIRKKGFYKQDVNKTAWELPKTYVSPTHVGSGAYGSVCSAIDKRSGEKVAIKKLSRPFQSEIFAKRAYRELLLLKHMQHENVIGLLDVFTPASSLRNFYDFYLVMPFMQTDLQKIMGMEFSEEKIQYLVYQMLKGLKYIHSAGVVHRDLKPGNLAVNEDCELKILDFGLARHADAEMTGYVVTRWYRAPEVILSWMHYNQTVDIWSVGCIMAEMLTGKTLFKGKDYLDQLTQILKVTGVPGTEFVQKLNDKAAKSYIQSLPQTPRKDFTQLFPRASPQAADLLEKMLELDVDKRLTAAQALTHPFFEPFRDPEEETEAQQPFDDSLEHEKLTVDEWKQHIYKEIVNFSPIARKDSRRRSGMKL

[18] = target: Tyrosine-protein kinase Yes (Homo sapiens) (UniProt P07947); test: Inhibition of Yes tyrosine kinase
Sequence of Tyrosine-protein kinase Yes (Homo sapiens) (P07947 2-543 limits assumed): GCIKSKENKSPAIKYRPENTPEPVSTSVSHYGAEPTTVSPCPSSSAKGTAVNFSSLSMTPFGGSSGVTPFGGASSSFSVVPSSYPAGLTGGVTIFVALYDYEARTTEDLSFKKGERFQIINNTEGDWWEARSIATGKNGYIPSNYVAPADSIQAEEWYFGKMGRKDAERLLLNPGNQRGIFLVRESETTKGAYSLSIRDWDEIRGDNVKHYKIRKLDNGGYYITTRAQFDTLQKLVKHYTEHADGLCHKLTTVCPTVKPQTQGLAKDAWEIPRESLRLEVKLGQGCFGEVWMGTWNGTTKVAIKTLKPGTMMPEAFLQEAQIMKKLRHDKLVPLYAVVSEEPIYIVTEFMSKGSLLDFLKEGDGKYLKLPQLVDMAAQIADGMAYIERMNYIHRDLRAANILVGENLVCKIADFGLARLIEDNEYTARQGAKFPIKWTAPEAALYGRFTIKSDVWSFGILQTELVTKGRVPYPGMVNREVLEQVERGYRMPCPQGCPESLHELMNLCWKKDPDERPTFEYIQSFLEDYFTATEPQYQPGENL

Sequence of Mitogen-activated protein kinase 11 (Homo sapiens) (Q15759 whole entry): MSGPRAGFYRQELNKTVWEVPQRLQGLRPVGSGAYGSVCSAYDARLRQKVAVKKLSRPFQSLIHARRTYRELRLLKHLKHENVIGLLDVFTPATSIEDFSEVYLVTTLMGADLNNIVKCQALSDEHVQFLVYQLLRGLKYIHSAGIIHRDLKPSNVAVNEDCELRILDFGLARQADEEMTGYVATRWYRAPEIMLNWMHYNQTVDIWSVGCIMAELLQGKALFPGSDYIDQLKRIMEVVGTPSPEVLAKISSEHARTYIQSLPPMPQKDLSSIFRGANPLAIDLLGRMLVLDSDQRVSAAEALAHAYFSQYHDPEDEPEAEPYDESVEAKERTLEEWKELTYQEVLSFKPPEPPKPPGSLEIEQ
Sequence of Tyrosine-protein kinase Fes/Fps (Homo sapiens) (P07332 whole entry): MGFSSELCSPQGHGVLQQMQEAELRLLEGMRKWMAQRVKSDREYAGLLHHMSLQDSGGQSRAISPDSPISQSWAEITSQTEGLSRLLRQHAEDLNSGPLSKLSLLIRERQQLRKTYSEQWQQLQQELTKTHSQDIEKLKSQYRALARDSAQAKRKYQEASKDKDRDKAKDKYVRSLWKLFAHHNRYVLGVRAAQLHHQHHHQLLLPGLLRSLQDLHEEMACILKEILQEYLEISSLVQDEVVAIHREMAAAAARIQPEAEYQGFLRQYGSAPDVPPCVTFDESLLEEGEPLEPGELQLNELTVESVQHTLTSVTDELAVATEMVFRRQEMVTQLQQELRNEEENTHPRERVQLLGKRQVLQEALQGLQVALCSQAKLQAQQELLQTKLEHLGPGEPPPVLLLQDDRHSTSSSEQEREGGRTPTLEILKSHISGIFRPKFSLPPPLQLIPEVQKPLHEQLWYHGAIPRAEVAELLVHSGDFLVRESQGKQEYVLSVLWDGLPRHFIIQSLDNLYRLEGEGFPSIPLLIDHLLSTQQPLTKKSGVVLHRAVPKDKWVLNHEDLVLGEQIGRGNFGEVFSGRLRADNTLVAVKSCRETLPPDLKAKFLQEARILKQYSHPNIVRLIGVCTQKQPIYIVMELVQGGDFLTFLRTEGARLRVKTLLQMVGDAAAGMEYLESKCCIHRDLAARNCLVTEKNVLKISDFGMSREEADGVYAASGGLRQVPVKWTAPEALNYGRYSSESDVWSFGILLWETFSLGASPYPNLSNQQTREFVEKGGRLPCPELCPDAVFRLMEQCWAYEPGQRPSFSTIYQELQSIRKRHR
Sequence of RAC-beta serine/threonine-protein kinase (Homo sapiens) (P31751 whole entry): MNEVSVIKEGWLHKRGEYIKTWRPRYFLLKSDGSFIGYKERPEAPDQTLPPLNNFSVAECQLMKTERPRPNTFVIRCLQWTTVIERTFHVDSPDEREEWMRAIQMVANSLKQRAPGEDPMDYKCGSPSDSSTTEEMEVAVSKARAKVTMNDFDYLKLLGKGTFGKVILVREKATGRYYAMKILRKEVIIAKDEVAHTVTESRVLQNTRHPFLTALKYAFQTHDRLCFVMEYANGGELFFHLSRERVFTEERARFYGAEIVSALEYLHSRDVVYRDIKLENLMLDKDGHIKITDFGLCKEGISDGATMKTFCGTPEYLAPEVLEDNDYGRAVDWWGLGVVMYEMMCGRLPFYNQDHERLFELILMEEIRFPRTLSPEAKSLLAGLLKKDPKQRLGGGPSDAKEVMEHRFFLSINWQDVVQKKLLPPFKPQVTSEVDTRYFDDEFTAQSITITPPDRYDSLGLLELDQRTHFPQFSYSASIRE
Sequence of Protein kinase C beta type (P05771 2-671 limits assumed): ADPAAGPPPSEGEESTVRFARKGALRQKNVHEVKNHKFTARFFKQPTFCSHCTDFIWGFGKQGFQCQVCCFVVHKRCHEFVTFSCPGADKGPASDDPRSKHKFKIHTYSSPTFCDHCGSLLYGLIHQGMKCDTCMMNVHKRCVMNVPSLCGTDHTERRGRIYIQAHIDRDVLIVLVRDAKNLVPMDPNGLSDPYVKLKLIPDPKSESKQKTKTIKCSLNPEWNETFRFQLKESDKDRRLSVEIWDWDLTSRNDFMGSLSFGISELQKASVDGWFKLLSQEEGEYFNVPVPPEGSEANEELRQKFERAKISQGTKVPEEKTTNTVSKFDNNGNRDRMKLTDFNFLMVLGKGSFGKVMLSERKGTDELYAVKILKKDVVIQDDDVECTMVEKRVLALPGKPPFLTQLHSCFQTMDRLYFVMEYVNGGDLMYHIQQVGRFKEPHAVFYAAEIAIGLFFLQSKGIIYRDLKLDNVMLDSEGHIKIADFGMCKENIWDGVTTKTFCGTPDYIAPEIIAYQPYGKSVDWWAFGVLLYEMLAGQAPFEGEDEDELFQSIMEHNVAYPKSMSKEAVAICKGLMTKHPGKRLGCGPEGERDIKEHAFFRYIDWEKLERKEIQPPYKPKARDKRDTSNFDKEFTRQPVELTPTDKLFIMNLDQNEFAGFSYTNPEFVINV
Sequence of Cyclin-dependent kinase 5/CDK5 activator 1 (Homo sapiens) (Q00535 whole entry): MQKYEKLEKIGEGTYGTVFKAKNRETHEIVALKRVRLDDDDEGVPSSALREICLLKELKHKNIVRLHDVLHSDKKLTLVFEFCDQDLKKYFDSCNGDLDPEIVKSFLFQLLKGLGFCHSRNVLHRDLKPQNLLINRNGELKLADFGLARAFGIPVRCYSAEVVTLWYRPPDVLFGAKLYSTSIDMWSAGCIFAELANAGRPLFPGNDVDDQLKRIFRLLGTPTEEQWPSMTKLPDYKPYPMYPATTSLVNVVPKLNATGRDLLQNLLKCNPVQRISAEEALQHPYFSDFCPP
Sequence of Cyclin-dependent kinase 5/CDK5 activator 1 (Homo sapiens) (Q15078 99-307 partner limits assumed): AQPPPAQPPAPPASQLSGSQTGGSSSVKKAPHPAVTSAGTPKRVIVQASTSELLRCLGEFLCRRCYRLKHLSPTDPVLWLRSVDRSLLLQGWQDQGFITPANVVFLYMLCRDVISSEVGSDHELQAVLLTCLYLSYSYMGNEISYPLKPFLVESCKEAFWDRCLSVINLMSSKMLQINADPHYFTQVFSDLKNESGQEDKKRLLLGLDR
Sequence of RAC-alpha serine/threonine-protein kinase (Homo sapiens) (P31749 whole entry): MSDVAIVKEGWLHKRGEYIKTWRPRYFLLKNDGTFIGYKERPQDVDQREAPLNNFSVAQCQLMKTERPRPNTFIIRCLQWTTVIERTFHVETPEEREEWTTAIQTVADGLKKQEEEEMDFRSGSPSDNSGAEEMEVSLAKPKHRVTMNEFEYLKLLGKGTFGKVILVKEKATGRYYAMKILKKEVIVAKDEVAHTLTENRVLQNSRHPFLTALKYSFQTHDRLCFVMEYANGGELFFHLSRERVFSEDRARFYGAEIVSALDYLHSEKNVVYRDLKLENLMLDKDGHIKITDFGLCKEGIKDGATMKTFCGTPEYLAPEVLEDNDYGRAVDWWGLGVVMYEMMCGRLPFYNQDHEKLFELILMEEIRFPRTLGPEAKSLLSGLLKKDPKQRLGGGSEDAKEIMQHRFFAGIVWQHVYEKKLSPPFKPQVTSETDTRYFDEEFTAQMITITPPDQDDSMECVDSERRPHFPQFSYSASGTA

## COc1ccccc1C1=C(c2cn(CCCNC(=O)OC(C)(C)C)c3ncccc23)C(=O)NC1=O
[1]
  Activity: 60%
[2]
  Activity: 103%
[3]
  Activity: 3%
[4]
  Activity: 2%
[5]
  Activity: 2%
[6]
  Activity: 60%
[7]
  Activity: 3%
[8]
  Activity: 87%
[9]
  Activity: 101%
[10]
  Activity: 112%
[11]
  Activity: 15%
[12]
  Activity: 103%
[13]
  Activity: 99%
[14]
  Activity: 54%
[15]
  Activity: 95%
[16]
  Activity: 106%
[17]
  Activity: 100%
[18]
  Activity: 42%

## COCCCn1cc(C2=C(c3ccccc3O)C(=O)NC2=O)c2cccnc21
[1]
  Activity: 63%
[2]
  Activity: 93%
[3]
  Activity: 11%
[4]
  Activity: 9%
[5]
  Activity: 9%
[6]
  Activity: 47%
[7]
  Activity: 9%
[8]
  Activity: 79%
[9]
  Activity: 86%
[10]
  Activity: 99%
[11]
  Activity: 32%
[12]
  Activity: 93%
[13]
  Activity: 82%
[14]
  Activity: 49%
[15]
  Activity: 78%
[16]
  Activity: 102%
[17]
  Activity: 97%
[18]
  Activity: 89%

## O=C1NC(=O)C(c2cn(CCCO)c3ncccc23)=C1c1ncc(C(F)(F)F)cc1Cl
[1]
  Activity: 76%
[2]
  Activity: 56%
[3]
  Activity: 30%
[4]
  Activity: 25%
[5]
  Activity: 25%
[6]
  Activity: 59%
[7]
  Activity: 34%
[8]
  Activity: 81%
[9]
  Activity: 87%
[10]
  Activity: 86%
[11]
  Activity: 70%
[12]
  Activity: 64%
[13]
  Activity: 69%
[14]
  Activity: 67%
[15]
  Activity: 73%
[16]
  Activity: 94%
[17]
  Activity: 86%
[18]
  Activity: 93%
